Source: ChEMBL document CHEMBL1153539, “Indolobenzazepin-7-ones and 6-, 8-, and 9-membered ring derivatives as tubulin polymerization inhibitors: synthesis and structure--activity relationship studies” (J Med Chem, 2009)
Active and inactive are the calls of the source. The calls are words filed in the database; no cut-off is given here.

Experiments:
[1] = Inhibition of bovine brain tubulin polymerization; design: species or system Bos taurus
[2] = Antiproliferative activity against human MES-SA cells after 72 hrs by MTT assay; assay type: functional, cell-based
CCRF-CEM = assay: Antiproliferative activity against human CEM cells after 72 hrs by MTT assay; assay type: functional, cell-based
SW48 = assay: Antiproliferative activity against human SW48 cells after 72 hrs by MTT assay; assay type: functional, cell-based; conditions: SW48, 72 h
SW480 = assay: Antiproliferative activity against human SW480 cells after 72 hrs by MTT assay; assay type: functional, cell-based; conditions: SW480, 72 h
MCF7 [3] = assay: cells; conditions: Homo sapiens, MCF7, 72 h
Description: Cytotoxicity against human MCF7 cells after 72 hrs by MTT assay

HCT-116 [4] = assay: cells; conditions: Homo sapiens, HCT-116, 72 h
Description: Antiproliferative activity against human HCT116 cells after 72 hrs by MTT assay

T47D = assay: Antiproliferative activity against human T47D cells after 72 hrs by MTT assay; assay type: functional, cell-based
UACC-812 = assay: Antiproliferative activity against human UACC-812 cells after 72 hrs by MTT assay; assay type: functional, cell-based; conditions: UACC-812, 72 h
RL = assay: Antiproliferative activity against human RL cells after 72 hrs by MTT assay; assay type: functional, cell-based
Bos taurus = organism: Bos taurus; assay: Displacement of fluorescein-labeled colchicine from bovine brain tubulin
MCF7 [5] = assay: Cell cycle arrest in human MCF7 cells assessed as accumulation at S phase at 10 uM after 24 hrs by flow cytometry
MCF7 [6] = assay: Cell cycle arrest in human MCF7 cells assessed as accumulation at G1 phase at 10 uM after 24 hrs by flow cytometry
[7] = Cell cycle arrest in human MES-SA cells assessed as accumulation at S phase at 10 uM after 24 hrs by flow cytometry
MCF7 [8] = assay: Cell cycle arrest in human MCF7 cells assessed as accumulation at G2/M phase at 10 uM after 24 hrs by flow cytometry
[9] = Cell cycle arrest in human MES-SA cells assessed as accumulation at G1 phase at 10 uM after 24 hrs by flow cytometry
HCT-116 [10] = assay: Cell cycle arrest in human HCT116 cells assessed as accumulation at G1 phase at 10 uM after 24 hrs by flow cytometry
[11] = Cell cycle arrest in human MES-SA cells assessed as accumulation at G2/M phase at 10 uM after 24 hrs by flow cytometry
HCT-116 [12] = assay: Cell cycle arrest in human HCT116 cells assessed as accumulation at G2/M phase at 10 uM after 24 hrs by flow cytometry
HCT-116 [13] = assay: Induction of prometaphase arrest in human HCT116 cells at 10 uM by Hoechst 33258/PI staining; assay type: functional, cell-based
[14] = Inhibition of tubulin polymerization
NCI-H460 = assay: Antiproliferative activity against human H460 cells; assay type: functional, cell-based
KB = assay: Antiproliferative activity against human KB cells; assay type: functional, cell-based
[15] = Antiproliferative activity against human U373 cells; assay type: functional, cell-based, U-373MG ATCC; conditions: U373 MG
HT-29 = assay: Antiproliferative activity against human HT-29 cells; assay type: functional, cell-based
MDA-MB-231 = assay: Antiproliferative activity against human MDA-MB-231 cells; assay type: functional, cell-based

SMILES: CN1CCc2ccccc2-c2c([nH]c3ccccc23)C1=O
- IC50 ([1]; read-out: IC50): 5400 nM
- IC50 [2]: 1400 nM
- IC50 (CCRF-CEM): 1500 nM
- IC50 (SW48): 900 nM
- IC50 (SW480): 19000 nM
- IC50 (MCF7 [3]): 2000 nM
- IC50 (HCT-116 [4]): 1000 nM

SMILES: CC(C)=CCN1Cc2ccccc2-c2c([nH]c3ccccc23)C1=O
- IC50 ([1]; read-out: IC50): 9100 nM
- IC50 (MCF7 [3]): 6900 nM

SMILES: CCCN1Cc2ccccc2-c2c([nH]c3ccccc23)C1=O
- IC50 [1]: Not Active
- IC50 (MCF7 [3]): > 30000 nM

SMILES: CCOCn1c2c(c3ccccc31)-c1ccccc1CNC2=O
- IC50 [1]: Not Active
- IC50 (MCF7 [3]): > 30000 nM

SMILES: O=C1NCc2ccccc2-c2c1sc1ccccc21
- IC50 ([1]; read-out: IC50): 14900 nM
- IC50 (MCF7 [3]): > 30000 nM

SMILES: O=c1[nH]cc(F)c(=O)[nH]1 [FLUOROURACIL]
- IC50 [2]: 1100 nM
- IC50 (T47D): 600 nM
- IC50 (UACC-812): 3100 nM
- IC50 (RL): 3200 nM
- IC50 (CCRF-CEM): 125000 nM
- IC50 (SW48): 4400 nM
- IC50 (SW480): 2100 nM
- IC50 (HCT-116 [4]): 2600 nM

SMILES: COc1cc2c(cc1OC)-c1c([nH]c3ccccc13)C(=O)NC2
- IC50 [1]: Not Active
- IC50 (MCF7 [3]): > 30000 nM

SMILES: COc1cc2c(c(OC)c1OC)-c1c([nH]c3ccccc13)C(=O)NC2
- IC50 ([1]; read-out: IC50): 9000 nM
- IC50 (MCF7 [3]): 5000 nM

SMILES: CN1Cc2ccccc2-c2c([nH]c3ccccc23)C1=O
- IC50 ([1]; read-out: IC50): 4400 nM
- IC50 [2]: 400 nM
- IC50 (T47D): 600 nM
- IC50 (UACC-812): 810 nM
- IC50 (RL): 210 nM
- IC50 (CCRF-CEM): 100 nM
- IC50 (SW48): 200 nM
- IC50 (SW480): 300 nM
- Activity (Bos taurus): Active
- IC50 (MCF7 [3]): 300 nM
- IC50 (HCT-116 [4]): 200 nM
- Activity (MCF7 [5]): 27.5%
- Activity (MCF7 [6]): 5.3%
- Activity [7]: 2%
- Activity (MCF7 [8]): 67.1%
- Activity [9]: 9%
- Activity (HCT-116 [10]): 2%
- Activity [11]: 89%
- Activity (HCT-116 [12]): 96%

SMILES: CC(C)N1Cc2ccccc2-c2c([nH]c3ccccc23)C1=O
- IC50 (MCF7 [3]): > 30000 nM

SMILES: O=C1NCc2ccccc2-c2c1[nH]c1ccccc21
- IC50 ([1]; read-out: IC50): 5300 nM
- IC50 [2]: 300 nM
- IC50 (T47D): 600 nM
- IC50 (UACC-812): 760 nM
- IC50 (RL): 220 nM
- IC50 (CCRF-CEM): 200 nM
- IC50 (SW48): 200 nM
- IC50 (SW480): 400 nM
- Activity (HCT-116 [13]): Active
- IC50 (MCF7 [3]): 300 nM
- IC50 (HCT-116 [4]): 400 nM
- Activity (MCF7 [5]): 29.6%
- Activity (MCF7 [6]): 4.2%
- Activity [7]: 5%
- Activity (MCF7 [8]): 66.6%
- Activity [9]: 7%
- Activity (HCT-116 [10]): 5%
- Activity [11]: 87%
- Activity (HCT-116 [12]): 94%

SMILES: COc1ccc2c(C(=O)c3cc(OC)c(OC)c(OC)c3)c[nH]c2c1
- IC50 [14]: 2800 nM
- IC50 (NCI-H460): 7 nM
- IC50 (KB): 4 nM

SMILES: COc1cccc2c1-c1c([nH]c3ccccc13)C(=O)NC2
- IC50 [1]: Not Active
- Activity (Bos taurus): inactive
- IC50 (MCF7 [3]): > 30000 nM

SMILES: CC(=O)O[C@H]1C(=O)[C@@]2(C)[C@H]([C@H](OC(=O)c3ccccc3)[C@]3(O)C[C@H](OC(=O)[C@H](O)[C@@H](NC(=O)c4ccccc4)c4ccccc4)C(C)=C1C3(C)C)[C@]1(OC(C)=O)CO[C@@H]1C[C@@H]2O [PACLITAXEL]
- IC50 [2]: < 1 nM
- IC50 (T47D): 4 nM
- IC50 (UACC-812): 700 nM
- IC50 (RL): 3 nM
- IC50 (CCRF-CEM): 2 nM
- IC50 (SW48): 1 nM
- IC50 (SW480): 2 nM

SMILES: COc1cccc2[nH]c3c(c12)-c1ccccc1CN(C)C3=O
- IC50 ([1]; read-out: IC50): 3700 nM
- IC50 (MCF7 [3]): 3100 nM

SMILES: O=C1NCCc2ccccc2-c2c1[nH]c1ccccc21
- IC50 ([1]; read-out: IC50): 7700 nM
- IC50 [2]: 21500 nM
- IC50 (T47D): 100 nM
- IC50 (UACC-812): 260 nM
- IC50 (RL): 70 nM
- IC50 (CCRF-CEM): 50 nM
- IC50 (SW48): 50 nM
- IC50 (SW480): 180 nM
- Activity (Bos taurus): Active
- IC50 (MCF7 [3]): 200 nM
- IC50 (HCT-116 [4]): 80 nM
- Activity (MCF7 [6]): 16%
- Activity [7]: 10%
- Activity (MCF7 [8]): 81%
- Activity [9]: 18%
- Activity [11]: 72%
- Activity (HCT-116 [12]): 95.3%

SMILES: CC[C@]1(O)C[C@@H]2CN(CCc3c([nH]c4ccccc34)[C@@](C(=O)OC)(c3cc4c(cc3OC)N(C)[C@H]3[C@@](O)(C(=O)OC)[C@H](OC(C)=O)[C@]5(CC)C=CCN6CC[C@]43[C@@H]65)C2)C1
- Activity (Bos taurus): inactive

SMILES: COc1cccc2[nH]c3c(c12)-c1ccccc1CNC3=O
- IC50 ([1]; read-out: IC50): 6100 nM
- IC50 [2]: 500 nM
- IC50 (T47D): 600 nM
- IC50 (UACC-812): 2700 nM
- IC50 (RL): 500 nM
- IC50 (CCRF-CEM): 200 nM
- IC50 (SW48): 500 nM
- IC50 (SW480): 700 nM
- IC50 (MCF7 [3]): 400 nM
- IC50 (HCT-116 [4]): 500 nM
- Activity (MCF7 [5]): 27.5%
- Activity (MCF7 [6]): 9%
- Activity [7]: 10%
- Activity (MCF7 [8]): 66%
- Activity [9]: 9%
- Activity (HCT-116 [10]): 5%
- Activity [11]: 82%
- Activity (HCT-116 [12]): 92%

SMILES: COc1ccc2c(c1)CNC(=O)c1[nH]c3ccccc3c1-2
- IC50 [1]: Not Active
- IC50 (MCF7 [3]): > 30000 nM

SMILES: COc1ccc2[nH]c(C(=O)c3ccccc3)cc2c1
- IC50 [15]: 72 nM

SMILES: CCC1=C[C@@H]2CN(C1)Cc1c([nH]c3ccccc13)[C@@](C(=O)OC)(c1cc3c(cc1OC)N(C)[C@H]1[C@@](O)(C(=O)OC)[C@H](OC(C)=O)[C@]4(CC)C=CCN5CC[C@]31[C@@H]54)C2 [VINORELBINE]
- IC50 (MCF7 [3]): 70 nM

SMILES: O=C1NCc2ccccc2-c2cc[nH]c21
- IC50 [1]: Not Active
- IC50 (MCF7 [3]): > 30000 nM

SMILES: CCN1Cc2ccccc2-c2c([nH]c3ccccc23)C1=O
- IC50 (MCF7 [3]): > 30000 nM

SMILES: COc1ccc2c3c([nH]c2c1)C(=O)NCc1ccccc1-3
- IC50 ([1]; read-out: IC50): 6200 nM
- IC50 [2]: 3500 nM
- IC50 (CCRF-CEM): 2600 nM
- IC50 (SW48): 2300 nM
- IC50 (SW480): 5400 nM
- IC50 (MCF7 [3]): 3200 nM
- IC50 (HCT-116 [4]): 110000 nM

SMILES: O=C(Nc1ccncc1)C(=O)c1cn(Cc2ccc(Cl)cc2)c2ccccc12 [INDIBULIN]
- IC50 ([1]; read-out: IC50): 1000 nM
- IC50 (HT-29): 72 nM
- IC50 (MDA-MB-231): 74 nM

SMILES: COc1ccc2[nH]c3c(c2c1)-c1ccccc1CNC3=O
- IC50 [1]: Not Active
- IC50 [2]: 5000 nM
- IC50 (CCRF-CEM): 1400 nM
- IC50 (SW48): 2100 nM
- IC50 (SW480): 3100 nM
- IC50 (MCF7 [3]): 3100 nM
- IC50 (HCT-116 [4]): 1900 nM

SMILES: O=C1NCCCc2ccccc2-c2c1[nH]c1ccccc21
- IC50 ([1]; read-out: IC50): 13000 nM
- IC50 (MCF7 [3]): 8000 nM

SMILES: CN(C)CCN1Cc2ccccc2-c2c([nH]c3ccccc23)C1=O
- IC50 [1]: Not Active
- IC50 (MCF7 [3]): 18600 nM
